Source: ChEMBL document CHEMBL1177670 (Bioorg Med Chem, 2010)
pKi: −log10 of the molar value. Calls of active or inactive are those of the source. The rule behind the calls is not given here.

Columns and labels:
[1] = biological target: T1, D(2) dopamine receptor (Homo sapiens, UniProt P14416); assay: biochemical
[2] = biological target: T2, D(4) dopamine receptor (Homo sapiens, UniProt P21917); assay: biochemical
T2 sequence (P21917 whole entry): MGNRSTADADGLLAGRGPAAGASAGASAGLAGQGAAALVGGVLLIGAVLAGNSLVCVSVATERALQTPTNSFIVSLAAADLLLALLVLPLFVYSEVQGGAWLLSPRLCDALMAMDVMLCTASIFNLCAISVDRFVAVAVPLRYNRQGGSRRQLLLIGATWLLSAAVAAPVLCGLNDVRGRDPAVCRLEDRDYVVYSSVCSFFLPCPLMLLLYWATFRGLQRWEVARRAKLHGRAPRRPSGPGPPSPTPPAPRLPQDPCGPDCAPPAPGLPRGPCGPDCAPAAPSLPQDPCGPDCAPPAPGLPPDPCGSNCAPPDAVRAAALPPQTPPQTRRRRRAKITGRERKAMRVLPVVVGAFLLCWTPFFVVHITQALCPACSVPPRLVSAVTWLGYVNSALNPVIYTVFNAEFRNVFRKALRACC

[3] = biological target: T3, D(3) dopamine receptor (Homo sapiens, UniProt P35462); assay: biochemical
T3 sequence (P35462 whole entry): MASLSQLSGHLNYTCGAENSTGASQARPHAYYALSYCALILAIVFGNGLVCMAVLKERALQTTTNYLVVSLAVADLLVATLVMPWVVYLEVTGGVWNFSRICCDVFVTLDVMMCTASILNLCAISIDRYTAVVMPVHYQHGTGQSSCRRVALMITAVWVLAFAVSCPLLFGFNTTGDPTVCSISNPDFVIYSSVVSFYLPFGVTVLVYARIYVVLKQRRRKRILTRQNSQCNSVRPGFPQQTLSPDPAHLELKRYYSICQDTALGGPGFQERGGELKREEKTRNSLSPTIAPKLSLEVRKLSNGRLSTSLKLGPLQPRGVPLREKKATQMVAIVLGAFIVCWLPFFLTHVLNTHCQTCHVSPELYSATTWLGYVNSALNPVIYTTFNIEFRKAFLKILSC

[4] = biological target: T1, D(2) dopamine receptor
[5] = biological target: T4, Sigma non-opioid intracellular receptor 1 (Cavia porcellus, UniProt Q60492)
T4 sequence (Q60492 whole entry): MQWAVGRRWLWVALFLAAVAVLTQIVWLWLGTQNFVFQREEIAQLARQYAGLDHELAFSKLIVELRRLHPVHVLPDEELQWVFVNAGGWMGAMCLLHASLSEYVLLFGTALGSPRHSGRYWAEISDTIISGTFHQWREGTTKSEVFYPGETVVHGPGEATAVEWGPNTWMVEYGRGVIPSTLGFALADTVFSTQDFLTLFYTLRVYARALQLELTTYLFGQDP
Description: (§1) Displacement of [3H](+)-pentazocine from sigma 1 receptor in guinea pig brain homogenates after 1 hr by liquid scintillation counting

[6] = biological target: T2, D(4) dopamine receptor
[7] = biological target: T3, D(3) dopamine receptor
[8] = biological target: T4, Sigma non-opioid intracellular receptor 1; assay: biochemical
Description: as §1

[9] = biological target: T1, D(2) dopamine receptor; assay: Antagonist at human dopamine D2 long receptor expressed in HEK293 cells assessed as inhibition of forskolin-induced adenylyl cyclase activity at 10 nM after 20 mins by spectrophotometric analysis in presence of quinpirole; format: functional, cell-based

T1 sequence (P14416 whole entry): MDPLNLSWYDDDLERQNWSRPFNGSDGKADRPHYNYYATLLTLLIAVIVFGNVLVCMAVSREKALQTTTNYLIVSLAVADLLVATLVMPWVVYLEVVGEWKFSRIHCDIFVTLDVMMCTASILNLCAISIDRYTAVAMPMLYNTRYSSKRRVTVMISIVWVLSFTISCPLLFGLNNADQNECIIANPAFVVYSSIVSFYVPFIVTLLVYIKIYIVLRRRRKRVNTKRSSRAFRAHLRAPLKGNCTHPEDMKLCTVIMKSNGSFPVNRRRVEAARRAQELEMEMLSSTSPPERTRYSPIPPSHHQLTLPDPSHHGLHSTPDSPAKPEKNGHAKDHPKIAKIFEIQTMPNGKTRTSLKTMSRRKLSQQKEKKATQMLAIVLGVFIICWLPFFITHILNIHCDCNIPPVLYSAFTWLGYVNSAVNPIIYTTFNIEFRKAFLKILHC

Compound	pKi [1]	pKi [2]	pKi [3]	further results
CN1CN(c2ccccc2)C2(CCN(Cc3coc4ccccc34)CC2)C1=O	8.15	6.31	8.68	
OC1(c2ccc(I)cc2)CCN(Cc2coc3ccccc23)CC1	8.62			
COc1ccc2[nH]cc(CN3CCC(O)(c4ccc(Br)cc4)CC3)c2c1				pKi [4]: 8.60; pKi [5]: 6.97; pKi [6]: 6.15
OC1(c2ccc(Br)cc2)CCN(Cc2c[nH]c3ccc(OCCF)cc23)CC1		6.46	6.73	
OC1(c2ccc(I)cc2)CCN(Cc2c[nH]c3ccccc23)CC1	8.42			
COc1cccc2[nH]cc(CN3CCC(O)(c4ccc(Br)cc4)CC3)c12				pKi [4]: 8.64; pKi [5]: 5.59; pKi [7]: 6.72; pKi [6]: 6.08
O=C1N(CCF)CN(c2ccccc2)C12CCN(Cc1coc3ccccc13)CC2	8.10	6.02	8.03	
CSc1ccc(C2(O)CCN(Cc3c[nH]c4ncccc34)CC2)cc1	6.60	6.03	5.31	
OC1(c2ccccc2)CCN(Cc2cc3ccccc3s2)CC1	7.33		6.85	pKi [8]: 8.67
O=C1N(Cc2cn(CCF)nn2)CN(c2ccccc2)C12CCN(Cc1coc3ccccc13)CC2	8.70	6.01	9.05	
OC1(c2ccc(Br)cc2)CCN(Cc2c[nH]c3cccc(OCCF)c23)CC1		6.18	6.07	
OC1(c2ccc(I)cc2)CCN(Cc2cc3ccccc3o2)CC1		6.61	7.31	
COc1ccc2[nH]cc(CN3CCC(O)(c4ccccc4)CC3)c2c1	5.86	< 5.00	5.53	
OC1(c2ccc(Br)cc2)CCN(Cc2cc3ccccc3o2)CC1		6.60		
COc1cccc2[nH]cc(CN3CCC(O)(c4ccc(Cl)cc4)CC3)c12				pKi [4]: 8.38; pKi [5]: < 5.30; pKi [7]: 6.60; pKi [6]: < 5.70
OC1(c2ccc(Br)cc2)CCN(Cc2coc3ccccc23)CC1	8.18		7.96	
OC1(c2ccc(Br)cc2)CCN(Cc2c[nH]c3ncccc23)CC1	6.67	6.21	5.53	
OC1(c2ccc(Cl)cc2)CCN(Cc2c[nH]c3ccccc23)CC1				pKi [7]: 6.98; pKi [6]: 6.35
OC1(c2ccc(I)cc2)CCN(Cc2c[nH]c3ncccc23)CC1	7.21	6.20	5.80	
COc1cccc2[nH]cc(CN3CCC(O)(c4ccc(I)cc4)CC3)c12			6.91	Activity [9]: Active
COc1ccc2[nH]cc(CN3CCC(O)(c4ccc(I)cc4)CC3)c2c1	9.05	6.89	7.00	Activity [9]: Active
COc1ccc2[nH]cc(CN3CCC(O)(c4ccc(Cl)cc4)CC3)c2c1				pKi [4]: 8.38; pKi [5]: 6.62; pKi [7]: 6.69; pKi [6]: < 5.46
OC1(c2ccc(Br)cc2)CCN(Cc2c[nH]c3ccccc23)CC1				pKi [4]: 8.32; pKi [5]: 7.92; pKi [7]: 6.96; pKi [6]: 6.19
